Assay results reported in US8143256B2, “Cyclic amide and ester pyrazinoylguanidine sodium channel blockers” (Parion Sciences, Inc., priority 2004, dated 2012).

melting point: 143 to 147 °C
SMILES: N=C(NCCCCN1CCC(CCCC(N)=O)CC1)NC(=O)c1nc(Cl)c(N)nc1N [Example 1, 4-(1-{4-[N′-(3,5-diamino-6-chloropyrazine-2-carbonyl)guanidino]-butyl}piperidin-4-yl)butyramide]
